Measurements taken from patent publication US6375927B1, “Methods of radiotherapy using biomodulators” (priority 1991, dated 2002).

Legend:
canine glioma tumors = assay: NMR imaging of tumor using pokeweed mitogen; effect on T1; format: in vivo, nude rats
Experimental: Three nude rats were implanted with canine glioma tumors in their left flank. […] NMR imaging was performed as above at 4 hours post injection.

B-16 melanoma cells [1] = assay: Tissue localization of otherwise non-specific imaging agent (Tc-99m HSA) after pokeweed mitogen; format: in vivo, mouse; details: 10 μg pokeweed mitogen four hours before 99mTc-HSA
Experimental: A mouse ([…]) was injected with B-16 melanoma cells in accordance with Example 1. 7 days later, 10 μg of pokeweed mitogen was injected into the mouse. Four hours later ^99mTc-human serum albumin (HSA) was injected. The resultant posterior gamma camera image is obtained of the tumor grown in the mouse. Comparison with the control image.

[2] = tested on: xenografts of human teratocarcinoma tumors; assay: Imaging tumors with 99mTc-labeled TNF-α and biomodulators; format: in vivo, Balb/c mice; details: pretreatment 15 hours earlier
Experimental: Balb/c mice bearing xenografts of human teratocarcinoma tumors induced by subcutaneous injections of live tumor cells 8 days previously were injected with 10 μg of Ukrain, pokeweed mitogen or 10K units of interferon. 15 hours later, they were injected i.v. with 10 μCi of ^99mTc-labeled TNF-α labeled using the ascorbic acid reduction method of M. L. Thakur. M. L. Thakur et al., “Tc-99m Labeled Monoclonal Antibodies: Evaluation of Reducing Agents,” Internat. J. Nucl. Med. Biol. 18, 227-233 (1991). M. L. Thakur et al., “Tc-99m Labeled Monoclonal Antibodies for Immunoscintigraphy: Simplified Preparation and Evaluation,” J. Immunol. Methods 137, 217-225 (1991). Mice were imaged at 1.5, 4 and 24 hours post injection of the ^99m-labeled TNF-α and sacrificed for tissue distribution studies.

B-16 melanoma cells [3] = assay: Effect of a biomodulator on the biodistribution of a non-specific agent (I-125 BSA); format: in vivo, mice; details: 2 hours (FIG. 9) and 4 hours (FIG. 10)
Source text: The results of biodistribution studies of mice injected with 6×10^5 B-16 melanoma cells 7 days prior to the injection of Tc-99m labeled pokeweed (Tc-99m PWM) and I-125 bovine serum albumin (I-125 BSA) or Tc-99m labeled human serum albumin (Tc-99m HSA) and I-125 bovine serum albumin (I-125 BSA) .

[4] = treatment with unlabeled PWM, FIG. 6
[5] = 4 and 24 hours post injection of TNF-α
[6] = 1.5 hours post injection of TNF-α

Substance | Visualization of the tumors (NMR imaging) (canine glioma tumors; 4 hours post injection, 7 days post-implantation) | effect on T1 of the treated tissue image (canine glioma tumors; NMR image, 4 hours post injection) | T1 measured on the tumor (canine glioma tumors; [4]) | T1 of normal muscle tissue (canine glioma tumors; [4]) | gamma camera image of tumor with 99mTc-HSA versus control image without pokeweed mitogen (B-16 melanoma cells [1]) | tumor to muscle ratios of radioisotope uptake (99mTc-labeled TNF-α) compared to mice not receiving biomodulators or interferon [2, 5] | tumor to muscle ratios of radioisotope uptake (99mTc-labeled TNF-α) compared to mice not receiving biomodulators or interferon [2, 6] | distribution of I-125 BSA depending on co-injected agent (Tc-99m PWM or Tc-99m HSA) (B-16 melanoma cells [3])
pokeweed mitogen | observed as bright areas | lowers T1 | enhanced tenfold | remained at baseline levels | significant image enhancement | not at 4 and 24 hours | enhanced | 
I-125 BSA: I-125 bovine serum albumin, non-specific agent |  |  |  |  |  |  |  | significant differences
interferon |  |  |  |  |  | not at 4 and 24 hours | enhanced | 
